Data reported in US20120142645A1, “NEUROACTIVE STEROID COMPOSITIONS AND METHODS OF USE FOR LOWERING CHOLESTEROL” (priority 2009, published 2012).
“And” between values parts separate entries of the source, which are not always exact repeats. Equal entries are not always repeated.

What was measured:
[1] = single oral dose 175 mg; over the course of 4-8 hours; Roberts, 1995; cited from earlier work
[2] = system: patients with schizophrenia or schizoaffective disorder; experiment: SANS negative symptoms; randomized placebo-controlled 8-week trial of adjunctive pregnenolone (100, 300, then 500 mg/day oral); assay type: in vivo, human; conditions: for SANS Total, change: text prints it as positive mean change (improvement); for SANS Total, difference PG vs placebo: points; for SANS Affect subscale score / SANS Alogia subscale score / SANS Anhedonia/asociality subscale score / SANS Attention subscale score / SANS Avolition/apathy subscale score / SANS Total score: mean ± SD, n = 8
Experimental: (§1) Study Design and Subjects. Disclosed herein is a placebo-controlled, double-blind, parallel group, randomized trial of adjunctive pregnenolone for the treatment of cognitive and negative symptoms in patients with schizophrenia or schizoaffective disorder. […] Patients received a total of 6 study visits, which took place every two weeks. […] The trial was conducted at a single site, the Durham Veterans Affairs Medical Center in Durham, N.C. The protocol was approved by the local institutional review board and conducted under FDA Investigational New Drug (IND) #71,768. The ClinicalTrials.gov number for this study is NCT00560937.
Subjects were outpatients between the ages of 18 and 65 with schizophrenia or schizoaffective disorder diagnosed by DSM-IV/DSM-IV-TR criteria utilizing the Structured Clinical Interview (First et al., 1996) and medical records. All subjects were between the ages of 18-65 and provided informed consent. Duration of illness was greater than one year for all enrolled patients. To be eligible for the trial, patients had to be taking a second-generation antipsychotic (aripiprazole, olanzapine, quetiapine, or risperidone) for at least 8 weeks, with no changes in antipsychotic dosing in the preceding 4 weeks. Patients receiving first-generation antipsychotics were excluded. Concomitant psychiatric medications were permissible (antidepressants, mood stabilizers, anticholinergics, other), provided that patients were receiving stable doses of all of these medications in the 4 weeks preceding the trial and throughout the entire duration of the study. Any change in psychiatric medications at any point during the study rendered a patient ineligible to continue participation.
(§2) During the screening visit (Visit 1), patients received a physical exam, vital signs, and electrocardiogram (EKG), as well as baseline laboratory measures consisting of serum electrolytes, glucose, creatinine, blood urea nitrogen (chemistry 7 panel), liver function tests, complete blood count (CBC), urinalysis, urine toxicology test, thyroid stimulating hormone (TSH), and prolactin, and serum pregnancy test if female. These tests were also repeated at the completion of the study (Visit 6). In addition, patients received an interim EKG 4 weeks post-randomization, as well as a serum pregnancy test if female (Visit 4). Patients also received a chemistry 7 panel, CBC, and liver function tests at Visits 2, 3, 4, and 5 (i.e., at all study visits). Psychiatric symptoms were assessed at baseline using the Scale for the Assessment of Negative Symptoms (Andreasen, 1983), the Positive and Negative Symptom Scale (PANSS; Kay et al., 1987), the Calgary Depression Rating Scale (CDRS; Addington et al., 1990), the Clinical Global Impressions Improvement (CGI-I) and Severity (CGI-S) scales, the Barnes Akathisia Scale (BAS; Barnes, 1989), the Simpson Angus Scale for Extrapyramidal Symptoms (SAS; Simpson & Angus, 1970), the Quality of Life Scale (QOL; Heinrichs et al., 1984), and the Hillside Side Effects Scale. One research nurse with five years of experience in the conduction of schizophrenia clinical trials completed both psychiatric and cognitive assessments throughout the study, and was trained to one point of divergence on each PANSS item.

[3] = system: patients with schizophrenia or schizoaffective disorder; experiment: Psychiatric rating scales (PANSS, CGI, Calgary, SAS, BAS, AIMS, Quality of Life); same trial; assay type: in vivo, human; set-up: CGI-S score / Calgary Depression Scale, difference PG vs placebo / Heinrich Carpenter subscore Interpersonal and social work, difference PG vs placebo / Heinrich Carpenter subscore Occupational role function, difference PG vs placebo / Heinrich Carpenter subscore Other residual symptoms, difference PG vs placebo: scale not given here; conditions: for Heinrich Carpenter Quality of Life Scale, difference PG vs placebo: not significant (p=0.32); for PANSS General subscore / PANSS Negative symptoms subscore / PANSS Positive symptoms subscore / PANSS total score: mean; for CGI-I score: Week 8 (final), 2=much improved, 3=minimally improved, n = 9
Experimental: as §1, §2

[4] = Difference in change from Week 0 to Week 8
[5] = Week 0 (baseline), listed as pregnenolone
[6] = Difference in changes from Week 0-8
[7] = Difference in changes from Week 0-8, points
[8] = Difference in changes from Week 0-8, points, listed as pregnenolone

SMILES: CC(=O)[C@H]1CC[C@H]2[C@@H]3CC=C4C[C@@H](O)CC[C@]4(C)[C@H]3CC[C@]12C [PG, pregnenolone]
- Serum pregnenolone levels after single oral dose [1]: approximately doubles
- SANS Affect subscale, change ([2]; Change from Week 0 to Week 8): −4.3 ± 1.7
- SANS Alogia subscale, change ([2]; Change from Week 0 to Week 8): −1.9 ± 0.8
- SANS Anhedonia/asociality subscale, change ([2]; Change from Week 0 to Week 8): −2.4 ± 1.3
- SANS Attention subscale, change ([2]; Change from Week 0 to Week 8): −1.6 ± 0.4
- SANS Avolition/apathy subscale, change ([2]; Change from Week 0 to Week 8): −0.3 ± 0.3
- SANS Total, change ([2]; Change from Week 0 to Week 8): −10.4 ± 10.2
- SANS Total, change ([2]; Change from Week 0 to Week 8, listed as pregnenolone): 10.38±10.18
- SANS Affect subscale, difference PG vs placebo [2, 4]: −4.5 ± 1.9
- SANS Alogia subscale, difference PG vs placebo [2, 4]: −1.5 ± 0.8
- SANS Anhedonia/asociality subscale, difference PG vs placebo [2, 4]: −1.6 ± 1.3
- SANS Attention subscale, difference PG vs placebo [2, 4]: −0.5 ± 0.5
- SANS Avolition/apathy subscale, difference PG vs placebo [2, 4]: 0.1 ± 0.6
- SANS Total, difference PG vs placebo [2, 4]: −8.0 ± 3.7
- SANS Total, difference PG vs placebo ([2]; Difference in change from Week 0 to Week 8, listed as Pregnenolone): approximately 8
- SANS Affect subscale score ([2]; Week 0 (baseline)): 13.4 ± 5.0
- SANS Alogia subscale score ([2]; Week 0 (baseline)): 8.8 ± 3.6
- SANS Anhedonia/asociality subscale score ([2]; Week 0 (baseline)): 12.0 ± 4.5
- SANS Attention subscale score ([2]; Week 0 (baseline)): 5.6 ± 1.1
- SANS Avolition/apathy subscale score ([2]; Week 0 (baseline)): 8.3 ± 2.5
- SANS Total score ([2]; Week 0 (baseline)): 50.8 ± 12.2
- SANS Total score [2, 5]: 47.56±12.09
- SANS Affect subscale score ([2]; Week 4): 14.3 ± 3.2
- SANS Alogia subscale score ([2]; Week 4): 7.8 ± 3.2
- SANS Anhedonia/asociality subscale score ([2]; Week 4): 10.4 ± 4.1
- SANS Attention subscale score ([2]; Week 4): 5.3 ± 1.0
- SANS Avolition/apathy subscale score ([2]; Week 4): 8.1 ± 1.0
- SANS Total score ([2]; Week 4): 45.8 ± 8.8
- SANS Affect subscale score ([2]; Week 8): 11.9 ± 0.4
- SANS Alogia subscale score ([2]; Week 8): 6.9 ± 2.1
- SANS Anhedonia/asociality subscale score ([2]; Week 8): 9.6 ± 3.5
- SANS Attention subscale score ([2]; Week 8): 4.0 ± 0
- SANS Avolition/apathy subscale score ([2]; Week 8): 8.0 ± 0.5
- SANS Total score ([2]; Week 8): 40.4 ± 3.5
- CGI-S, change ([3]; Changes from Week 0-8): −0.1
- Calgary Depression Scale, change ([3]; Changes from Week 0-8, n = 7): −1.6
- AIMS, change ([3]; Changes from Week 0-8, n = 8): −1.0
- Barnes Akathisia Scale, change ([3]; Changes from Week 0-8, n = 8): −0.4
- Heinrich Carpenter Quality of Life Scale, change ([3]; Changes from Week 0-8, n = 8): 7.9
- Heinrich Carpenter subscore Interpersonal and social work, change ([3]; Changes from Week 0-8, n = 8): 5.4
- Heinrich Carpenter subscore Occupational role function, change ([3]; Changes from Week 0-8, n = 8): 0.9
- Heinrich Carpenter subscore Other residual symptoms, change ([3]; Changes from Week 0-8, n = 8): 1.6
- PANSS General, change ([3]; Changes from Week 0-8, n = 8): −4.5
- PANSS Negative symptoms, change ([3]; Changes from Week 0-8, n = 8): −2.8
- PANSS Positive symptoms, change ([3]; Changes from Week 0-8, n = 8): −2.6
- PANSS total, change ([3]; Changes from Week 0-8, n = 8): −9.9
- Simpson-Angus Scale, change ([3]; Changes from Week 0-8, n = 8): −0.1
- AIMS, difference PG vs placebo [3, 6]: −0.6 ± 0.7
- Calgary Depression Scale, difference PG vs placebo [3, 6]: 0.4 ± 1.6
- Heinrich Carpenter subscore Interpersonal and social work, difference PG vs placebo [3, 6]: 3.6 ± 3.2
- Heinrich Carpenter subscore Occupational role function, difference PG vs placebo [3, 6]: 0.8 ± 0.6
- Heinrich Carpenter subscore Other residual symptoms, difference PG vs placebo [3, 6]: 0.9 ± 2.2
- PANSS General, difference PG vs placebo [3, 6]: −1.3 ± 2.1
- PANSS Positive symptoms, difference PG vs placebo [3, 6]: −1.6 ± 0.8
- Simpson-Angus Scale, difference PG vs placebo [3, 6]: −0.2 ± 0.4
- PANSS Negative symptoms, difference PG vs placebo [3, 7]: −1.5 ± 1.4
- PANSS Negative symptoms, difference PG vs placebo [3, 8]: 1.53
- PANSS total, difference PG vs placebo ([3]; Difference in changes from Week 0-8, points, not significant (p=0.24)): −4.4 ± 3.6
- Heinrich Carpenter Quality of Life Scale, difference PG vs placebo [3, 7]: 5.3 ± 5.1
- Heinrich Carpenter Quality of Life Scale, difference PG vs placebo [3, 8]: 5.27±5.07 and 5.27
- AIMS score ([3]; Week 0 (baseline)): 1.6
- Barnes Akathisia Scale score ([3]; Week 0 (baseline)): 0.4
- CGI-S score ([3]; Week 0 (baseline)): 4.0
- Calgary Depression Scale score ([3]; Week 0 (baseline)): 2.4
- Heinrich Carpenter Quality of Life Scale score ([3]; Week 0 (baseline)): 47.5
- Heinrich Carpenter subscore Interpersonal and social work ([3]; Week 0 (baseline)): 17.9
- Heinrich Carpenter subscore Occupational role function ([3]; Week 0 (baseline)): 1.9
- Heinrich Carpenter subscore Other residual symptoms ([3]; Week 0 (baseline)): 27.8
- Simpson-Angus Scale score ([3]; Week 0 (baseline)): 1.0
- CGI-S score [3, 5]: 4.00±0.50
- PANSS General subscore ([3]; Week 0 (baseline)): 35.5
- PANSS Negative symptoms subscore ([3]; Week 0 (baseline)): 23.4
- PANSS Positive symptoms subscore ([3]; Week 0 (baseline)): 13.6
- PANSS total score ([3]; Week 0 (baseline)): 72.5
- AIMS score ([3]; Week 4): 0.9
- Barnes Akathisia Scale score ([3]; Week 4): 0.4
- Simpson-Angus Scale score ([3]; Week 4): 1.3
- PANSS General subscore ([3]; Week 4): 34.3
- PANSS Negative symptoms subscore ([3]; Week 4): 23.2
- PANSS Positive symptoms subscore ([3]; Week 4): 12.8
- PANSS total score ([3]; Week 4): 67.9
- AIMS score ([3]; Week 8): 0.6
- Barnes Akathisia Scale score ([3]; Week 8): 0.0
- Calgary Depression Scale score ([3]; Week 8): 0.9
- Heinrich Carpenter Quality of Life Scale score ([3]; Week 8): 55.4
- Heinrich Carpenter subscore Interpersonal and social work ([3]; Week 8): 23.3
- Heinrich Carpenter subscore Occupational role function ([3]; Week 8): 2.8
- Heinrich Carpenter subscore Other residual symptoms ([3]; Week 8): 29.4
- Simpson-Angus Scale score ([3]; Week 8): 0.9
- CGI-I score [3]: 2.11
- CGI-I score ([3]; listed as pregnenolone): 2.11±0.33 and 2.11
- CGI-S score ([3]; Week 8 (post-treatment)): 3.9
- CGI-S score ([3]; Week 8 (post-treatment), listed as pregnenolone): 3.89±0.33
- PANSS General subscore ([3]; Week 8): 31.2
- PANSS Negative symptoms subscore ([3]; Week 8): 20.6
- PANSS Positive symptoms subscore ([3]; Week 8): 11.9
- PANSS total score ([3]; Week 8): 63.6
